According to patent US9259467B2, “Mammalian receptors as targets for antibody and active vaccination therapy against mold infections” (Los Angeles Biomedical Research Institute at Harbor-UCLA …, priority 2009, dated 2016):

Assays:
Type in all cases: cell-based, human
[1] = tested on: R. oryzae germlings on endothelial cells; assay: 51Cr release assay of R. oryzae-induced endothelial cell damage
Protocol: R. oryzae-induced endothelial or CHO cell damage was quantified by using a chromium (^51Cr) release assay (Ibrahim et al., J Infect Dis. 198(7):1083-1090 (2008)). Briefly, endothelial cells or CHO cells grown in 96-well tissue culture plates containing detachable wells were incubated with 1 μCi per well of Na2^51CrO4 (ICN) in M-199 medium (for endothelial cells) or Alpha minimum Eagle's medium (for CHO cells) for 16 hours.
On the day of the experiment, the unincorporated ^51Cr was aspirated, and the wells were washed twice with warmed HBSS (Irvine Scientific). Cells were infected with fungal germlings (1.5×10^5 germinated for 1 hour) suspended in 150 μl RPMI 1640 medium (Irvine Scientific) supplemented with glutamine. Spontaneous ^51Cr release was determined by incubating endothelial or CHO cells in RPMI 1640 medium supplemented with glutamine without R. oryzae. […] The amount of ^51Cr in the aspirate and the detached well was determined by gamma counting. […] After the data were corrected for variations in the amount of tracer incorporated in each well, the percentage of specific endothelial cell release of ^51Cr was calculated by the following formula: [(experimental release×2)−(spontaneous release×2)]/[total incorporation−(spontaneous release×2)]. […]

[2] = tested on: R. oryzae germlings on endothelial cells; assay: Differential fluorescence assay of adherence and endocytosis of R. oryzae germlings by endothelial cells; settings: for Reduction of endothelial cell endocytosis of R. oryzae: phenanthroline 60 μM for 16 hours, cytochalasin D 200 nM
Protocol: The number of organisms endocytosed by endothelial cells or CHO cells was determined using a modification of a previously described differential fluorescence assay (Ibrahim et al., Infect Immun. 63(11):4368-4374 (1995)). Briefly, 12-mm glass coverslips in a 24-well cell culture plate were coated with fibronectin for at least 4 hours and seeded with endothelial or CHO cells until confluency. After washing twice with prewarmed HBSS, the cells were then infected with 10^5 cells of R. oryzae in RPMI 1640 medium that had been germinated for 1 hour. Following incubation for 3 hours, the cells were fixed in 3% paraformaldehyde and were stained for 1 hour with 1% Uvitex (a gift from Jay Isharani, Ciba-Geigy, Greensboro, N.C., USA), which specifically binds to the chitin of the fungal cell wall. After washing 3 times with PBS, the coverslips were mounted on a glass slide with a drop of ProLong Gold antifade reagent and sealed with nail polish. The total number of cell-associated organisms (i.e., germlings adhering to monolayer) was determined by phase-contrast microscopy. The same field was examined by epifluorescence microscopy, and the number of uninternalized germlings (which were brightly fluorescent) was determined. The number of endocytosed organisms was calculated by subtracting the number of fluorescent organisms from the total number of visible organisms. At least 400 organisms were counted in 20-40 different fields on each slide. Two slides per arm were used for each experiment, and the experiment was performed in triplicate on different days. […]
To determine the effects of chelating endothelial cell iron on interactions with R. oryzae, endothelial cells were incubated with different concentrations of phenanthroline for 16 hours. To prevent chelation of the radioisotope, ^51Cr was added to endothelial cells 24 hours prior to the addition of phenanthroline (Fratti et al., Infect Immun. 66(1):191-196 (1998)). To confirm that the effects of phenanthroline on R. oryzae-induced endocytosis by and damage of endothelial cells were due to chelation of endothelial cell iron, exogenous iron in the form of hemin was added to endothelial cells at a final concentration of 20 μM, 2 hours before phenanthroline (Fratti et al., supra). As a positive control for prevention of endocytosis, the microfilament disruptant cytochalasin D (Sigma-Aldrich) was added at a concentration of 200 nM simultaneously with R. oryzae germlings, and endocytosis was determined as above (Ibrahim et al., Infect Immun. 63(11):4368-4374 (1995)). […]

GRP78 transcript = assay: Quantification of GRP78 expression in endothelial cells by real time RT-PCR; settings: for GRP78 expression: data not shown
Protocol: The transductions were performed according to the manufacturer's protocol. Briefly, 1.6×10^4 endothelial cells were seeded into 96-well plate and incubated for about 20 hours at 37° C. in a 5% CO2 incubator. Cells were infected with lentiviral particles at an MOI of 20 in the presence of 8 μg/ml polybrene (Sigma-Aldrich) overnight. The transduced cells were incubated in fresh M199 medium for 4 more days. Puromycin at 0.2 μg/ml was added to select for puromycin-resistant cell pools, which usually took approximately 10 days of incubating at 37° C. in 5% CO^2. The puromycin-resistant cells were passaged until an appropriate amount of cells was obtained for endocytosis or damage assays as above. Reduction of GRP78 expression was confirmed by using real time RT-PCR (see below).
For quantification of GRP78 expression in endothelial or CHO cells, real time RT-PCR was carried out using a Power SYBR Green Cells-to-CT kit (Applied Biosystems) to extract RNA from 2×10^4 cells. Primers to amplify GRP78 from endothelial cells and CHO cells were 5′-[…]-3′ (SEQ ID NO: 3) and 5′-[…]-3′ (SEQ ID NO: 4). Primers 5′-ACCATCTTCCAGGAGCGAG-3′ (SEQ ID NO: 5) and 5′-TAAGCAGTTGGTGGTGCAG-3′ (SEQ ID NO: 6) were used to amplify the housekeeping gene GAPDH, which was used as a control.
To study the effect of acidosis, endothelial cells exposed to different pHs, ranging from 6.8 to 7.4, were grown in MEM buffered with HEPES for 5 hours in the presence or absence of phenanthroline. Next, endothelial cells were washed twice with cold PBS, and GRP78 total expression was quantified by real-time RT-PCR. […] To study the effect of hyperosmolarity and statins on GRP78 expression, endothelial cells in MEM were incubated with 1, 4, or 8 mg/ml mannitol or 5, 20, or 40 μg/ml lovastatin for 20 hours. […] GRP78 expression, endocytosis, and damage assays were conducted as above.

GRP78 = assay: Cell surface expression of GRP78 on endothelial cells by FACS; settings: high iron levels (0, 15, or 50 μM FeCl3 tested); flow cytometry
Protocol: Cell surface expression of GRP78 on endothelial cells exposed to varying concentrations of FeCl3 was quantified using FACS analysis. Briefly, endothelial cells grown in 25-cm flasks were dissociated using 1.5 ml enzyme-free dissociation buffer (Invitrogen). Cells were blocked with 50% goat serum, then stained with monoclonal anti-GRP78 Ab (BD Biosciences) at 1:100 for 1 hour. Endothelial cells were counterstained with ALEXA FLUOR 488-labeled anti-mouse IgG at 1:100 for 1 hour. Endothelial cells exposed to a similar concentration of FeCl3 or glucose and stained with an isotype matching control IgG (BD Biosciences) were used as negative control. A FACSCaliber (BD) instrument equipped with an argon laser emitting at 488 nm was used for flow cytometric analysis. Fluorescence data were collected with logarithmic amplifiers. The population percent fluorescence of 5×10^3 events was calculated using CellQuest software (BD).

[3] = 15 or 50 μM FeCl3, vs no exogenous FeCl3

[Cl][Fe]([Cl])[Cl] [FeCl3]
Enhancement of R. oryzae-induced endothelial cell damage [1, 3]: 80% | Enhancement of R. oryzae-induced endocytosis [2, 3]: 80% | Increase in endothelial cell GRP78 expression (GRP78 transcript; FeCl3 at iron concentrations of DKA sera, 5 hours, vs no iron): ≤ 12 fold | Increase of surface expression of GRP78 protein (GRP78): 150%

C=C1[C@@H](C)[C@H]2[C@H](Cc3ccccc3)NC(=O)[C@]23[C@H](OC(C)=O)/C=C/[C@@](C)(O)C(=O)[C@@H](C)C/C=C/[C@H]3[C@@H]1O [cytochalasin D]
Reduction of endothelial cell endocytosis of R. oryzae [2]: approximately 70%

CC[C@H](C)C(=O)O[C@H]1C[C@@H](C)C=C2C=C[C@H](C)[C@H](CC[C@@H]3C[C@@H](O)CC(=O)O3)[C@H]21 [lovastatin]
GRP78 expression (GRP78 transcript; lovastatin 5, 20, or 40 μg/ml for 20 hours): No evidence of alterations in expression

OC[C@@H](O)[C@@H](O)[C@H](O)[C@H](O)CO [mannitol]
GRP78 expression (GRP78 transcript; mannitol 1, 4, and 8 mg/ml for 20 hours): No change in GRP78 expression

c1cnc2c(c1)ccc1cccnc12 [phenanthroline]
R. oryzae-induced endothelial cell damage ([1]; varying concentrations of phenanthroline for 16 h, removed before assay): prevented R. oryzae-induced endothelial cell damage in a concentration-dependent manner | Reduction of endothelial cell endocytosis of R. oryzae [2]: approximately 70% | Endothelial cell GRP78 expression in the setting of acidosis (GRP78 transcript; pH 6.8 to 7.4, 5 hours, with phenanthroline): reversed GRP78 expression back to normal levels

hemin [exogenous iron]
Effect on the inhibition of endocytosis caused by the iron chelator phenanthroline ([2]; hemin 20 μM added 2 hours before phenanthroline): completely reversed the inhibition of endocytosis
